pKi: −log10 of the molar value.
What was measured:
Bcl-xL = Bcl-xL (Homo sapiens, UniProt Q07817); experiment: Bcl-xL binding affinity analysis (fluorescence polarization binding assay); conditions: read-out: BcI-XI (Ki, Bcl-xL binding affinity)
Source text: (§1) Bcl-2 and Bcl-xL binding may be determined using a variety of known methods. One such assay is a sensitive and quantitative in vitro binding assay using fluorescence polarization (FP) described by Wang, J.-L.; Zhang, Z-J.; Choksi, S.; Sjam. S.; Lu, Z.; Croce, C. M.; Alnemri, E. S.; Komgold, R.; Huang, Z. Cell permeable Bcl-2 binding peptides: a chemical approach to apoptosis induction in tumor cells. Cancer Res. 2000, 60, 1498-1502).
(§2) Bcl-2 and Bcl-xL binding affinity analysis data is presented below for various compounds of the invention.

Bcl-2 = Bcl-2 (Homo sapiens, UniProt P10415); experiment: Bcl-2 binding affinity analysis (fluorescence polarization binding assay); conditions: read-out: BcI2 (Ki, Bcl-2 binding affinity)
Bcl-2, sequence (P10415 whole entry): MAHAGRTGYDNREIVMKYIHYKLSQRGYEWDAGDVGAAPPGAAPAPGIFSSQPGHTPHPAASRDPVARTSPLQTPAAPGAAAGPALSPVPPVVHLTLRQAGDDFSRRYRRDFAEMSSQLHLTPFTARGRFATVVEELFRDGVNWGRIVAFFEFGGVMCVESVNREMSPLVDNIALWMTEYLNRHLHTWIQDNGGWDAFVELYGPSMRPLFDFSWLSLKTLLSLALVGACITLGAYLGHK
Source text: as §1, §2

Bcl-xL, sequence (Q07817 whole entry): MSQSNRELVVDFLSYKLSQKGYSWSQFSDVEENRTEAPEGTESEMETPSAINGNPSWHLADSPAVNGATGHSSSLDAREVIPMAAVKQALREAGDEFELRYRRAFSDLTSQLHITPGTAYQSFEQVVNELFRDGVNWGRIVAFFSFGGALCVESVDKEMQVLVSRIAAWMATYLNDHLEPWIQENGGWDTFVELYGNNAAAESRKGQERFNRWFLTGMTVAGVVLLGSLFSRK

COc1c(CN2O[C@@H](CN)[C@@H]([C@H](C)O)[C@H]2C(=O)N[C@H]2C[C@H]3C[C@@H]([C@@H]2C)C3(C)C)cccc1-c1cc(C(=O)N[C@@H](CC(C)C)CN(C)C)cc(N(C)C)c1 [Compound 72]
pKi (Bcl-xL): > 6.00 | pKi (Bcl-2): > 9.00

COc1c(CN2O[C@@H](CNC(C)=O)[C@@H]([C@H](C)O)[C@H]2C(=O)N[C@H]2C[C@H]3C[C@@H]([C@@H]2C)C3(C)C)cccc1-c1cc(C(=O)N[C@H](CN(C)C)CC(C)(C)C)cc(N(C)C)c1 [Compound 73]
pKi (Bcl-xL): > 6.00 | pKi (Bcl-2): > 9.00

COc1c(CN2O[C@@H](CNC(=O)C(F)(F)F)[C@@H]([C@H](C)O)[C@H]2C(=O)N[C@H]2C[C@H]3C[C@@H]([C@@H]2C)C3(C)C)cccc1-c1cc(C(=O)NCCc2ccccc2)cc(N(C)C)c1 [Compound 74]
pKi (Bcl-xL): 5.00 to 5.30 | pKi (Bcl-2): < 8.05

CNC(=O)c1cc(-c2cccc(CN3O[C@@H](CNC(=O)CCC(=O)O)[C@@H]([C@H](C)O)[C@H]3C(=O)N[C@H]3C[C@H]4C[C@@H]([C@@H]3C)C4(C)C)c2OC)cc(N(C)C)c1 [Compound 75]
pKi (Bcl-xL): 5.30 to 6.00 | pKi (Bcl-2): 8.05 to 8.30

COc1c(CN2O[C@@H](CNC(C)=O)[C@@H]([C@H](C)O)[C@H]2C(=O)N[C@H]2C[C@H]3C[C@@H]([C@@H]2C)C3(C)C)cccc1-c1cc(C(=O)NCCc2ccccc2)cc(N(C)C)c1 [Compound 76]
pKi (Bcl-xL): < 5.00 | pKi (Bcl-2): 8.05 to 8.30

CNC(=O)c1cc(-c2cccc(CN3O[C@@H](CNC(C)=O)[C@@H]([C@H](C)O)[C@H]3C(=O)N[C@H]3C[C@H]4C[C@@H]([C@@H]3C)C4(C)C)c2OC)cc(N(C)C)c1 [Compound 77]
pKi (Bcl-xL): 5.30 to 6.00 | pKi (Bcl-2): 8.05 to 8.30

CNC(=O)c1cc(-c2cccc(CN3O[C@@H](CNC(=O)CCC(=O)OC)[C@@H]([C@H](C)O)[C@H]3C(=O)N[C@H]3C[C@H]4C[C@@H]([C@@H]3C)C4(C)C)c2OC)cc(N(C)C)c1 [Compound 78]
pKi (Bcl-xL): 5.00 to 5.30 | pKi (Bcl-2): < 8.05

CNC(=O)c1cc(-c2cccc(CN3O[C@@H](CNC(=O)Nc4ccccc4)[C@@H]([C@H](C)O)[C@H]3C(=O)N[C@H]3C[C@H]4C[C@@H]([C@@H]3C)C4(C)C)c2OC)cc(N(C)C)c1 [Compound 79]
pKi (Bcl-xL): 5.00 to 5.30 | pKi (Bcl-2): < 8.05

COc1c(CN2O[C@@H](CN(C)C)[C@@H]([C@H](C)O)[C@H]2C(=O)N[C@H]2C[C@H]3C[C@@H]([C@@H]2C)C3(C)C)cccc1-c1cc(C(=O)NCCc2ccccc2)cc(N(C)C)c1 [Compound 80]
pKi (Bcl-xL): 5.00 to 5.30 | pKi (Bcl-2): 8.05 to 8.30

CNC(=O)c1cc(-c2cccc(CN3O[C@@H](CNCc4ccc(C(=O)O)cc4)[C@@H]([C@H](C)O)[C@H]3C(=O)N[C@H]3C[C@H]4C[C@@H]([C@@H]3C)C4(C)C)c2OC)cc(N(C)C)c1 [Compound 81]
pKi (Bcl-xL): < 5.00 | pKi (Bcl-2): < 8.05

CNC(=O)c1cc(-c2cccc(CN3O[C@@H](CNCc4ccncc4)[C@@H]([C@H](C)O)[C@H]3C(=O)N[C@H]3C[C@H]4C[C@@H]([C@@H]3C)C4(C)C)c2OC)cc(N(C)C)c1 [Compound 82]
pKi (Bcl-xL): < 5.00 | pKi (Bcl-2): < 8.05

CNC(=O)c1cc(-c2cccc(CN3O[C@@H](CNCc4ccccn4)[C@@H]([C@H](C)O)[C@H]3C(=O)N[C@H]3C[C@H]4C[C@@H]([C@@H]3C)C4(C)C)c2OC)cc(N(C)C)c1 [Compound 83]
pKi (Bcl-xL): < 5.00 | pKi (Bcl-2): < 8.05

CNC(=O)c1cc(-c2cccc(CN3O[C@@H](CNCc4cccc(C(=O)O)c4)[C@@H]([C@H](C)O)[C@H]3C(=O)N[C@H]3C[C@H]4C[C@@H]([C@@H]3C)C4(C)C)c2OC)cc(N(C)C)c1 [Compound 84]
pKi (Bcl-xL): < 5.00 | pKi (Bcl-2): < 8.05

CNC(=O)c1cc(-c2cccc(CN3O[C@@H](CNCc4ccccc4)[C@@H]([C@H](C)O)[C@H]3C(=O)N[C@H]3C[C@H]4C[C@@H]([C@@H]3C)C4(C)C)c2OC)cc(N(C)C)c1 [Compound 85]
pKi (Bcl-xL): 5.00 to 5.30 | pKi (Bcl-2): < 8.05

COc1c(CN2O[C@@H](CN=C(N(C)C)N(C)C)[C@@H]([C@H](C)O)[C@H]2C(=O)N[C@H]2C[C@H]3C[C@@H]([C@@H]2C)C3(C)C)cccc1-c1cc(C(=O)NCCc2ccccc2)cc(N(C)C)c1 [Compound 86]
pKi (Bcl-xL): < 5.00 | pKi (Bcl-2): < 8.05

CNC(=O)c1cc(-c2cccc(CN3O[C@@H](CN)[C@@H]([C@H](C)OC(=O)N(C)C)[C@H]3C(=O)N[C@H]3C[C@H]4C[C@@H]([C@@H]3C)C4(C)C)c2OC)cc(N(C)C)c1 [Compound 87]
pKi (Bcl-xL): < 5.00 | pKi (Bcl-2): < 8.05

CNC(=O)c1cc(-c2cccc(CN3O[C@@H](CN)[C@@H]([C@H](C)OC(=O)NCCc4ccccc4)[C@H]3C(=O)N[C@H]3C[C@H]4C[C@@H]([C@@H]3C)C4(C)C)c2OC)cc(N(C)C)c1 [Compound 91]
pKi (Bcl-xL): < 5.00 | pKi (Bcl-2): < 8.05

CNC(=O)c1cc(-c2cccc(CN3O[C@@H](CN)[C@@H]([C@H](C)OC(=O)NCCN(C)C)[C@H]3C(=O)N[C@H]3C[C@H]4C[C@@H]([C@@H]3C)C4(C)C)c2OC)cc(N(C)C)c1 [Compound 92]
pKi (Bcl-xL): < 5.00 | pKi (Bcl-2): < 8.05

CNC(=O)O[C@@H](C)[C@@H]1[C@H](CN)ON(Cc2cccc(-c3cc(C(=O)NC)cc(N(C)C)c3)c2OC)[C@@H]1C(=O)N[C@H]1C[C@H]2C[C@@H]([C@@H]1C)C2(C)C [Compound 93]
pKi (Bcl-xL): < 5.00 | pKi (Bcl-2): < 8.05

CCNC[C@@H]1ON(Cc2cccc(-c3cc(C(=O)NC)cc(N(C)C)c3)c2OC)[C@H](C(=O)N[C@H]2C[C@H]3C[C@@H]([C@@H]2C)C3(C)C)[C@@H]1[C@H](C)O [Compound 94]
pKi (Bcl-xL): < 5.00 | pKi (Bcl-2): 8.30 to 9.00

CNC(=O)c1cc(-c2cccc(CN3O[C@@H](CNCC(C)C)[C@@H]([C@H](C)O)[C@H]3C(=O)N[C@H]3C[C@H]4C[C@@H]([C@@H]3C)C4(C)C)c2OC)cc(N(C)C)c1 [Compound 95]
pKi (Bcl-xL): 5.00 to 5.30 | pKi (Bcl-2): 8.05 to 8.30

CNC(=O)c1cc(-c2cccc(CN3O[C@@H](CNCC4CC4)[C@@H]([C@H](C)O)[C@H]3C(=O)N[C@H]3C[C@H]4C[C@@H]([C@@H]3C)C4(C)C)c2OC)cc(N(C)C)c1 [Compound 96]
pKi (Bcl-xL): 5.00 to 5.30 | pKi (Bcl-2): 8.05 to 8.30

CNC(=O)c1cc(-c2cccc(CN3O[C@@H](CNC(C)C)[C@@H]([C@H](C)O)[C@H]3C(=O)N[C@H]3C[C@H]4C[C@@H]([C@@H]3C)C4(C)C)c2OC)cc(N(C)C)c1 [Compound 97]
pKi (Bcl-xL): < 5.00 | pKi (Bcl-2): < 8.05

CNC(=O)c1cc(-c2cccc(CN3O[C@@H](CN(CC(C)C)CC(C)C)[C@@H]([C@H](C)O)[C@H]3C(=O)N[C@H]3C[C@H]4C[C@@H]([C@@H]3C)C4(C)C)c2OC)cc(N(C)C)c1 [Compound 98]
pKi (Bcl-xL): 5.00 to 5.30 | pKi (Bcl-2): < 8.05

CNC(=O)c1cc(-c2cccc(CN3O[C@@H](CN(C)C)[C@@H]([C@H](C)O)[C@H]3C(=O)N[C@H]3C[C@H]4C[C@@H]([C@@H]3C)C4(C)C)c2OC)cc(N(C)C)c1 [Compound 99]
pKi (Bcl-xL): < 5.00 | pKi (Bcl-2): < 8.05

C[C@@H]1[C@@H](NC(=O)[C@@H]2[C@H]([C@H](C)O)[C@H](CO)ON2Cc2cccc(-c3cc(C(=O)N[C@@H](Cc4ccccc4)CN(C)C)cc(N(C)C)c3)c2OCCN(C)C)C[C@H]2C[C@@H]1C2(C)C [Compound 100]
pKi (Bcl-xL): 5.30 to 6.00 | pKi (Bcl-2): > 9.00

COc1c(CN2O[C@@H](CO)[C@@H]([C@H](C)O)[C@H]2C(=O)N[C@H]2C[C@H]3C[C@@H]([C@@H]2C)C3(C)C)cccc1-c1cc(C(=O)N[C@H](Cc2ccccc2)CN(C)C)cc(N(C)C)c1 [Compound 113]
pKi (Bcl-xL): > 6.00 | pKi (Bcl-2): > 9.00

COc1c(CN2O[C@@H](CNC(=O)CCC(=O)O)[C@@H]([C@H](C)O)[C@H]2C(=O)N[C@H]2C[C@H]3C[C@@H]([C@@H]2C)C3(C)C)cccc1-c1cc(C(=O)N[C@H](CN(C)C)CC(C)(C)C)cc(N(C)C)c1 [Compound 114]
pKi (Bcl-xL): > 6.00 | pKi (Bcl-2): > 9.00

COc1c(CN2O[C@@H](CNC(=O)CCN(C)C)[C@@H]([C@H](C)O)[C@H]2C(=O)N[C@H]2C[C@H]3C[C@@H]([C@@H]2C)C3(C)C)cccc1-c1cc(C(=O)N[C@H](CN(C)C)CC(C)(C)C)cc(N(C)C)c1 [Compound 115]
pKi (Bcl-xL): > 6.00 | pKi (Bcl-2): > 9.00

COc1c(CN2O[C@@H](CO)[C@@H]([C@H](C)O)[C@H]2C(=O)N[C@H]2C[C@H]3C[C@@H]([C@@H]2C)C3(C)C)cccc1-c1cc(C(=O)NCCc2ccccc2)cc(N(C)C)c1 [Compound 126]
pKi (Bcl-xL): > 6.00 | pKi (Bcl-2): > 9.00

COc1c(-c2cc(C(=O)N[C@@H](Cc3ccccc3)CN(C)C)cc(N(C)C)c2)ccc(F)c1CN1O[C@@H](CN)[C@@H]([C@H](C)O)[C@H]1C(=O)N[C@H]1C[C@H]2C[C@@H]([C@@H]1C)C2(C)C [Compound 127]
pKi (Bcl-xL): > 6.00 | pKi (Bcl-2): > 9.00

COc1c(CN2O[C@@H](CO)[C@@H]([C@H](C)O)[C@H]2C(=O)N[C@H]2C[C@H]3C[C@@H]([C@@H]2C)C3(C)C)cccc1-c1cc(C(=O)N[C@H](CN(C)C)[C@H](O)c2ccccc2)cc(N(C)C)c1 [Compound 136]
pKi (Bcl-xL): > 6.00 | pKi (Bcl-2): > 9.00

COc1c(-c2cc(C(=O)N[C@H](CN(C)C)[C@H](O)c3ccccc3)cc(N(C)C)c2)ccc(F)c1CN1O[C@@H](CO)[C@@H]([C@H](C)O)[C@H]1C(=O)N[C@H]1C[C@H]2C[C@@H]([C@@H]1C)C2(C)C [Compound 143]
pKi (Bcl-xL): > 6.00 | pKi (Bcl-2): > 9.00

COc1c(CN2O[C@@H](CO)[C@@H]([C@H](C)O)[C@H]2C(=O)N[C@H]2C[C@H]3C[C@@H]([C@@H]2C)C3(C)C)cccc1-c1cc(C(=O)N[C@H](CN(C)C)[C@@H](NS(C)(=O)=O)c2ccccc2)cc(N(C)C)c1 [Compound 144]
pKi (Bcl-xL): > 6.00 | pKi (Bcl-2): > 9.00

COc1c(-c2cc(C(=O)N[C@H](CN(C)C)[C@@H](NS(C)(=O)=O)c3ccccc3)cc(N(C)C)c2)ccc(F)c1CN1O[C@@H](CO)[C@@H]([C@H](C)O)[C@H]1C(=O)N[C@H]1C[C@H]2C[C@@H]([C@@H]1C)C2(C)C [Compound 151]
pKi (Bcl-xL): > 6.00 | pKi (Bcl-2): > 9.00
